Results taken from patent US20260193268A1, “TRICYCLIC PI3Ka INHIBITOR, PREPARATION METHOD THEREFOR, AND PHARMACEUTICAL USE THEREOF” (WIGEN BIOMEDICINE TECHNOLOGY (SHANGHAI) CO., LTD., priority 2022, published 2026).
Where two headings read alike, the source gives them in different places.

How the values were obtained:
[1] = test system: MCF-7 cells (with PI3Kα E545K mutation); test: In vitro inhibition of MCF-7 cell proliferation (CellTiter-Lumi); assay type: cell-based
Procedure: Biological Example 3. Assay for In Vitro Inhibition of MCF-7 Cell Proliferation by Compounds of the Present Disclosure
MCF-7 cells (with PI3Kα E545K mutation) were seeded into a 384-well plate (Fisher 142762) at 2000 cells per well. The next day, serially diluted compounds were added, and 144 h after the addition, CellTiter-Lumi (Beyotime C0068XL) was added to measure the ATP content in the cells. The growth of the cells was evaluated, and the IC50 for the inhibition of cell growth by the compounds was calculated.

[2] = test system: HCC1954 cells (with PI3Kα H1047R mutation); test: In vitro inhibition of HCC1954 cell proliferation (CellTiter-Lumi); assay type: cell-based
Procedure: Assay for In Vitro Inhibition of HCC1954 Cell Proliferation by Compounds of the Present Disclosure
The growth of the cells was evaluated, and the IC50 for the inhibition of cell growth by the compounds was calculated.

[3] = Homo sapiens, MCF7, 144 h, class symbols, read-out: Inhibitory activity against MCF-7 cells (IC50), class symbols
[4] = Homo sapiens, MCF7, 144 h, numeric values, read-out: Inhibitory activity against MCF-7 cells (IC50)
[5] = Homo sapiens, HCC1954, 144 h, HCC1954 cells, 144 h, CellTiter-Lumi, numeric values, read-out: Inhibitory activity against HCC1954 cells (IC50)
[6] = Homo sapiens, HCC1954, 144 h, HCC1954 cells, 144 h, CellTiter-Lumi, class symbols, read-out: Inhibitory activity against HCC1954 cells (IC50), class symbols

| SMILES | IC50 [1, 3] | IC50 [1, 4] | IC50 [2, 5] | IC50 [2, 6] | other results |
| --- | --- | --- | --- | --- | --- |
| CCOP(=O)(OCC)OCOC(C)(C)C=C(C#N)C(=O)Nc1ccc(N2CC(N3CCN(c4ccc5c(c4)-c4nc(N6C(=O)OC[C@H]6C(F)F)cn4CCO5)CC3)C2)cc1 [Compound 341] | < 50 nM | – | – | – | IC50 ([2]; Homo sapiens, HCC1954, 144 h, read-out: Inhibitory activity against HCC1954 cells (IC50), class symbols): < 50 nM |
| C=CC(=O)Nc1ccc(N2CCN(c3ccc4c(c3)-c3nc(N5C(=O)OC[C@H]5C(F)F)cn3CCO4)CC2)cc1 [Compound 174] | – | 26 nM | 166 nM | – | – |
| CC(C)(C)C=C(C#N)C(=O)Nc1ccc(N2CC(N3CCN(c4cc5c(cc4O)OCCn4cc(N6C(=O)OC[C@H]6C(F)F)nc4-5)CC3)C2)cc1 [Compound 317] | < 50 nM | – | – | < 50 nM | – |
| CC(C)(C=C(C#N)C(=O)Nc1ccc(N2CC(N3CCN(c4ccc5c(c4)-c4nc(N6C(=O)OC[C@H]6C(F)F)cn4CCO5)CC3)C2)cc1Cl)N1CCC1 [Compound 363] | < 50 nM | – | – | < 50 nM | – |
| CNC(C)(C)C=C(C#N)C(=O)Nc1ccc(N2CC(N3CCN(c4ccc5c(c4)-c4nc(N6C(=O)OC[C@H]6C(F)F)cn4CCO5)CC3)C2)nn1 [Compound 299] | < 50 nM | – | – | < 50 nM | – |
| C=CC(=O)Nc1ccc(N2CC(N3CCN(c4ccc5c(c4)-c4nc(-c6nc(C)nn6C(C)C)cn4CCO5)CC3)C2)nc1 [Compound 379] | < 50 nM | – | – | < 50 nM | – |
| C=CC(=O)N1CCC(CCC(=O)N2CCN(c3ccc4c(c3)-c3nc(N5C(=O)OC[C@H]5C(F)F)cn3CCO4)CC2)CC1 [Compound 7] | – | 106 nM | 925 nM | – | – |
| CC(C)(C=C(C#N)C(=O)Nc1ccc(N2CC(N3CCN(c4ccc5c(c4)-c4nc(N6C(=O)OC[C@H]6C(F)F)cn4CCO5)CC3)C2)c(F)c1)N1CC2(COC2)C1 [Compound 228] | < 50 nM | – | – | < 50 nM | – |
| C/C=C/C(=O)Nc1ccc(N2CC(N3CCN(c4ccc5c(c4)-c4nc(N6C(=O)OC[C@H]6C(F)F)cn4CCO5)CC3)C2)cc1 [Compound 101] | – | 38 nM | 83 nM | – | – |
| CC(C)(C=C(C#N)C(=O)Nc1ccc(N2CC(N3CCN(c4ccc5c(c4)-c4nc(N6C(=O)OC[C@H]6C(F)F)cn4CCO5)CC3)C2)nc1)N1CC2(COC2)C1 [Compound 246] | < 50 nM | – | – | < 50 nM | – |
| C=CC(=O)Nc1ccc(N2CC(N3CCN(c4ccc5c(c4)-c4nc(N6C(=O)OC[C@H]6C(F)F)cn4CCO5)CC3)C2)c(C#N)c1 [Compound 172] | – | 0.2 nM | 3.6 nM | – | – |
| C=CC(=O)N1CCC(N2CCC(N3CCN(c4ccc5c(c4)-c4nc(N6C(=O)OC[C@H]6C(F)F)cn4CCO5)CC3)C2)CC1 (some centres unmarked) [Compound 89] | – | 41 nM | 230 nM | – | – |
| N#CC(=CC1CC1)C(=O)Nc1ccc(N2CC(N3CCN(c4ccc5c(c4)-c4nc(N6C(=O)OC[C@H]6C(F)F)cn4CCO5)CC3)C2)c(F)c1 [Compound 227] | < 50 nM | – | – | < 50 nM | – |
| C=CC(=O)Nc1ccc(N2CC(N3CCN(c4ccc5c(c4)-c4nc(-c6nc(C)nn6C(C)C)cn4CCO5)CC3)C2)c(F)c1 [Compound 376] | < 50 nM | – | – | < 50 nM | – |
| C=CC(=O)N1CCc2cc(CN3CCN(c4ccc5c(c4)-c4nc(N6C(=O)OC[C@H]6C(F)F)cn4CCO5)CC3)ccc2C1 [Compound 207] | < 50 nM | – | – | 50 to 100 nM | – |
| C=CC(=O)Nc1ccc(N2CC(CN3CC4(C3)CN(c3ccc5c(c3)-c3nc(N6C(=O)OC[C@H]6C(F)F)cn3CCO5)C4)C2)cc1 [Compound 25] | – | 390 nM | > 1000 nM | – | – |
| CC(C)(C=C(C#N)C(=O)Nc1ccc(N2CC(N3CCN(c4ccc5c(c4)-c4nc(N6C(=O)OC[C@H]6C(F)F)cn4CCO5)CC3)C2)nc1)N1CCC1 [Compound 247] | < 50 nM | – | – | < 50 nM | – |
| CC#CC(=O)N1CCc2cc(N3CC(N4CCN(c5ccc6c(c5)-c5nc(N7C(=O)OC[C@H]7C(F)F)cn5CCO6)CC4)C3)ccc21 [Compound 165] | – | 3.4 nM | 30 nM | – | – |
| C=CC(=O)N1CCC(CCN2CC3(C2)CN(c2ccc4c(c2)-c2nc(N5C(=O)OC[C@H]5C(F)F)cn2CCO4)C3)CC1 [Compound 19] | – | 217 nM | > 1000 nM | – | – |
| CNC(C)(C)C=C(C#N)C(=O)Nc1cnc(N2CC(N3CCN(c4ccc5c(c4)-c4nc(N6C(=O)OC[C@H]6C(F)F)cn4CCO5)CC3)C2)nc1 [Compound 261] | < 50 nM | – | – | < 50 nM | – |
| C=CC(=O)N1CC[C@H](C(=O)NCC(=O)N2CCN(c3ccc4c(c3)-c3nc(N5C(=O)OC[C@H]5C(F)F)cn3CCO4)CC2)C1 [Compound 3] | – | 62 nM | 282 nM | – | – |
| C=CC(=O)Nc1ccc(N2CC(N3CCN(c4ccc5c(c4)-c4nc(N6C(=O)OC[C@H]6C(F)F)cn4CCO5)CC3)C2)cc1OC [Compound 173] | – | 0.3 nM | 4 nM | – | – |

| SMILES | IC50 [1, 3] | IC50 [1, 4] | IC50 [2, 5] | IC50 [2, 6] | other results |
| --- | --- | --- | --- | --- | --- |
| CC(C)(C=C(C#N)C(=O)Nc1ccc(N2CC(N3CCN(c4ccc5c(c4)-c4nc(N6C(=O)OC[C@H]6C(F)F)cn4CCO5)CC3)C2)c(F)c1)NC1COC1 [Compound 221] | < 50 nM | – | – | < 50 nM | – |
| C=CC(=O)N1CCCc2cc(N3CC(N4CCN(c5ccc6c(c5)-c5nc(N7C(=O)OC[C@H]7C(F)F)cn5CCO6)CC4)C3)ccc21 [Compound 159] | – | 1.8 nM | 28 nM | – | – |
| CNC(C)(C)C=C(C#N)C(=O)Nc1ccc(N2CC(N3CCN(c4ccc5c(c4)-c4nc(N6C(=O)OC[C@H]6C(F)F)cn4CCO5)CC3)C2)cc1 [Compound 145] | – | 0.1 nM | 0.6 nM | – | – |
| C=CC(=O)Nc1ccc(N2CC(N3CCN(c4ccc5c(c4)-c4nc(N6C(=O)OC[C@H]6C(F)(F)F)cn4CCO5)CC3)C2)cc1 [Compound 277] | < 50 nM | – | – | < 50 nM | – |
| C=CC(=O)N1CC(N2CC[C@H](CN3CCN(c4ccc5c(c4)-c4nc(N6C(=O)OC[C@H]6C(F)F)cn4CCO5)CC3)C2)C1 [Compound 92] | – | 20 nM | 200 nM | – | – |
| C=CC(=O)N1CCc2cc(N3CC(N4CCN(c5ccc6c(c5)-c5nc(N7C(=O)OC[C@H]7C(F)F)cn5CCO6)CC4)C3)c(F)cc21 [Compound 177] | – | 0.1 nM | 2.2 nM | – | – |
| CC(C)(C=C(C#N)C(=O)Nc1ccc(N2CC(N3CCN(c4ccc5c(c4)-c4nc(N6C(=O)OC[C@H]6C(F)F)cn4CCO5)CC3)C2)cc1)NCOC(=O)C(C)(C)C [Compound 329] | < 50 nM | – | – | < 50 nM | – |
| CC(C)(C=C(C#N)C(=O)Nc1ccc(N2CC(N3CCN(c4ccc5c(c4)-c4nc(N6C(=O)OC[C@H]6C(F)F)cn4CCO5)CC3)C2)c(Cl)c1)N1CCC1 [Compound 354] | < 50 nM | – | – | < 50 nM | – |
| N#CC(=CC1CC1)C(=O)Nc1cnc(N2CC(N3CCN(c4ccc5c(c4)-c4nc(N6C(=O)OC[C@H]6C(F)F)cn4CCO5)CC3)C2)nc1 [Compound 263] | < 50 nM | – | – | < 50 nM | – |
| N#CC(=CC1CCCN1)C(=O)Nc1ccc(N2CC(N3CCN(c4ccc5c(c4)-c4nc(N6C(=O)OC[C@H]6C(F)F)cn4CCO5)CC3)C2)c(F)c1 (some centres unmarked) [Compound 234] | < 50 nM | – | – | < 50 nM | – |
| CN(C)C/C=C/C(=O)Nc1ccc(N2CC(N3CCN(c4ccc5c(c4)-c4nc(N6C(=O)OC[C@H]6C(F)F)cn4CCO5)CC3)C2)cc1Cl [Compound 365] | < 50 nM | – | – | < 50 nM | – |
| N#CC(=CC1(N)CC1)C(=O)Nc1ccc(N2CC(N3CCN(c4ccc5c(c4)-c4nc(N6C(=O)OC[C@H]6C(F)F)cn4CCO5)CC3)C2)cc1 [Compound 213] | < 50 nM | – | – | < 50 nM | – |
| CC(C)(C)OC(=O)NC1(C=C(C#N)C(=O)Nc2ccc(N3CC(N4CCN(c5ccc6c(c5)-c5nc(N7C(=O)OC[C@H]7C(F)F)cn5CCO6)CC4)C3)cc2)CC1 [Compound 326] | < 50 nM | – | – | < 50 nM | – |
| N#CC(=CC1CCCN1)C(=O)Nc1ccc(N2CC(N3CCN(c4ccc5c(c4)-c4nc(N6C(=O)OC[C@H]6C(F)F)cn4CCO5)CC3)C2)nc1 (some centres unmarked) [Compound 252] | < 50 nM | – | – | < 50 nM | – |
| CC(C)=CC(=O)CCCC(=O)N1CCC(/C=C/c2ccc3c(c2)-c2nc(N4C(=O)OC[C@H]4C(F)F)cn2CCO3)CC1 [Compound 189] | < 50 nM | – | – | 50 to 100 nM | – |
| CCC(C=C(C#N)C(=O)Nc1ccc(N2CC(N3CCN(c4ccc5c(c4)-c4nc(N6C(=O)OC[C@H]6C(F)F)cn4CCO5)CC3)C2)cc1)(CC)CC [Compound 389] | < 50 nM | – | – | < 50 nM | – |
| CC(=O)NC(C)(C)C=C(C#N)C(=O)Nc1ccc(N2CC(N3CCN(c4ccc5c(c4)-c4nc(N6C(=O)OC[C@H]6C(F)F)cn4CCO5)CC3)C2)nc1 [Compound 348] | < 50 nM | – | – | < 50 nM | – |
| CC(C)(O)C=C(C#N)C(=O)Nc1ccc(N2CC(N3CCN(c4ccc5c(c4)-c4nc(N6C(=O)OC[C@H]6C(F)F)cn4CCO5)CC3)C2)cc1 [Compound 211] | < 50 nM | – | – | < 50 nM | – |
| CC(C)(C=C(C#N)C(=O)Nc1ccc(N2CC(N3CCN(c4ccc5c(c4)-c4nc(N6C(=O)OC[C@H]6C(F)F)cn4CCO5)CC3)C2)cc1)N1CC(C2COC2)C1 [Compound 314] | < 50 nM | – | – | < 50 nM | – |
| CC(C)=CC(=O)CCC(=O)N1CCN(Cc2cc3nc(-c4cccc5[nH]ncc45)nc(N4CCOCC4)c3s2)CC1 [CNX1351] | – | – | – | – | IC50 ([1]; 144 h, numeric values, read-out: Inhibitory activity against MCF-7 cells (IC50)): 290 nM; IC50 ([2]; HCC1954 cells, 144 h, CellTiter-Lumi, numeric values, read-out: Inhibitory activity against HCC1954 cells (IC50)): 1190 nM |
| C=CC(=O)Nc1ncc(N2CC(N3CCN(c4ccc5c(c4)-c4nc(N6C(=O)OC[C@H]6C(F)F)cn4CCO5)CC3)C2)cc1C [Compound 163] | – | 0.5 nM | 6.6 nM | – | – |
